Data published in paper PMC7915765, “Biochemical Characterization, Specificity and Inhibition Studies of HTLV-1, HTLV-2, and HTLV-3 Proteases” (Life, 2021).
Where two headings read alike, the source gives them in different places.

What was measured:
[1] = test system: HTLV-1 PR; conditions: cited from earlier work
Excerpt: Table 2 Catalytic efficiencies of HTLV PRs on different substrates representing natural cleavage site sequences. Cleavage sites are labelled by asterisks within the sequences. Abbreviations: MA (matrix), CA (capsid), NC (nucleocapsid), and TF1 (trans-frame 1). | column: kcat/KM [mM^−1 s^−1] / HTLV-1 PR || Table 3 Catalytic efficiencies of HTLV PRs on different substrates representing natural cleavage site sequences of viruses other than HTLV. Cleavage sites are labelled by an asterisk within the sequences. Abbreviations: MA (matrix), CA (capsid), NC (nucleocapsid), TF (transframe), RT (reverse-transcriptase), and IN (integrase). | column: Substrate; kcat/KM (mM^−1 s^−1) / HTLV-1 PR ^1

[2] = test system: HIV-1 PR; conditions: cleavage sites of viruses other than HTLV, retrieved from the literature, ref [28]; cited from earlier work
Excerpt: Table 3 Catalytic efficiencies of HTLV PRs on different substrates representing natural cleavage site sequences of viruses other than HTLV. Cleavage sites are labelled by an asterisk within the sequences. Abbreviations: MA (matrix), CA (capsid), NC (nucleocapsid), TF (transframe), RT (reverse-transcriptase), and IN (integrase). | column: kcat/KM (mM^−1 s^−1) / HIV-1 PR ^1

[3] = target: HTLV-2 PR (Human T-cell leukemia virus 2, UniProt P03363); test: Protease activity assay with oligopeptide substrates (RP-HPLC), HTLV-2 PR; format: biochemical, human T-cell leukemia virus type 2; design: made in house; host or cells: E. coli BL21(DE3); conditions: pH 5.6, 37 °C
Sequence of HTLV-2 PR (P03363 447-571): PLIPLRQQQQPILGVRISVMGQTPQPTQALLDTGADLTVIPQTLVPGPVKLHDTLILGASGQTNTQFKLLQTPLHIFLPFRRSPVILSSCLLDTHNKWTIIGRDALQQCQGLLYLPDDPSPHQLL
Excerpt: (§1) The oligopeptides representing the naturally occurring matrix/capsid (MA/CA), capsid/nucleocapsid (CA/NC), trans-frame protein/protease (TF1/PR), and PR/p1 cleavage sites of HTLV-1, -2, and -3 PRs were used as substrates. The oligopeptide substrates representing the natural sequences of HTLV PRs were ordered from BioBasic, while the oligopeptide substrates representing naturally occurring cleavage sites of various viruses, or the wild-type, the shortened, and the P4, P3, P2, P1, or P1′ variants of HTLV-1 MA/CA cleavage site (KTKVL*VVQPK) were in-house stocks. All peptides were dissolved in distilled water.
(§2) For kinetic measurements, we applied 10 µL 2× incubation buffer (0.5 M K3PO4, 4 M NaCl, 10 v/v% glycerol, 10 mM DTT, pH 5.6), 5 µL of HTLV-1, HTLV-2, or HTLV-3 PR (final concentration of the active enzyme was in 0.1–34.4 nM), and 0.5–5 µL oligopeptide substrate representing HTLV PR natural cleavage sites (0.05–1.10 mM final concentration). The final volume of the reaction mixture was set to 20 µL with distilled water if it was necessary. The reactions were initiated by the addition of the enzyme, were incubated at 37 °C for 0.5–4 h, and stopped by the addition of 180 µL 1 v/v% TFA. For substrates representing natural cleavage sites of retroviruses other than HTLV-1, -2, and -3 PRs (HIV-1, equine infectious anemia virus (EIAV), Rous sarcoma virus (RSV), mouse mammary tumor virus (MMTV), Mason-Pfizer monkey virus (MPMV), and murine leukemia virus (MuLV) and BLV) in a longer incubation time (24 h) was also applied. The cleavage products were separated by using a Nova-Pack C18 RP-HPLC column (3.9 mm × 150 mm, Waters Associates Inc, Milford, MA, USA) on HPLC (Merck-Hitachi LaChrom). Water-acetonitrile gradient (0–100%) was used for separation in the presence of 0.05% TFA at 2 mL/min flow rate. The kinetic parameters were determined by fitting the data—obtained at less than 20% substrate hydrolysis—to the Michaelis–Menten equation. The Gaussian equation was used to determine pH optimum and exponential growth equation for determination of optimal NaCl concentration, while linear regression was applied to plot the dependence of enzyme activity on temperature. Prism8 software (GraphPad Software Inc., San Diego, CA, USA) was used for evaluation. The kcat/KM catalytic constants were calculated based on the active enzyme concentration, which was determined by active site titration using the method described previously.

[4] = target: HTLV-3 PR (Human T-cell leukemia virus 3, UniProt Q4U0X6); test: Protease activity assay with oligopeptide substrates (RP-HPLC), HTLV-3 PR; format: biochemical, human T-cell leukemia virus type 3; design: made in house; host or cells: E. coli BL21(DE3), pET11a; conditions: pH 5.6, 37 °C
Sequence of HTLV-3 PR (Q4U0X6 431-553): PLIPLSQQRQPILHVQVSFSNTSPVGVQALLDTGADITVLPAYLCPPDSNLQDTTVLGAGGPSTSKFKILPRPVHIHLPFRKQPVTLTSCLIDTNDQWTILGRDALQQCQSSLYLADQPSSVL
Excerpt: as §1, §2

[5] = cleavage sites of viruses other than HTLV, retrieved from the literature, ref [28]
[6] = cleavage sites of viruses other than HTLV, longer incubation time (24 h) also applied
[7] = natural HTLV-1 cleavage site substrates, previously reported values, ref [34]
[8] = natural HTLV cleavage sites, substrate 0.05–1.10 mM, 2× buffer 0.5 M K3PO4, 4 M NaCl, 10 v/v% glycerol, 10 mM DTT, 0.5–4 h

| Substance | kcat/KM [1, 5] | kcat/KM [2] | kcat/KM [3, 6] | kcat/KM [4, 6] | kcat/KM [1, 7] | kcat/KM [3, 8] [M⁻¹ s⁻¹] | kcat/KM [4, 8] [M⁻¹ s⁻¹] |
| --- | --- | --- | --- | --- | --- | --- | --- |
| PKDIF*PVTET [MPMV P12/CA, oligopeptide substrate PKDIF*PVTET] | 0.2 mM⁻¹ s⁻¹ | 200 M⁻¹ s⁻¹ | not cleaved | not cleaved |  |  |  |
| DSKAF*LADTW [MMTV PP21/P3, oligopeptide substrate DSKAF*LADTW] | not cleaved | 7500 M⁻¹ s⁻¹ | not cleaved | not cleaved |  |  |  |
| AKLVL*AQLSK [EIAV PR/RT, oligopeptide substrate AKLVL*AQLSK] | not cleaved | 13400 M⁻¹ s⁻¹ | not cleaved | not cleaved |  |  |  |
| SDLVL*LSAEARR [MMTV MA/PP21, oligopeptide substrate SDLVL*LSAEARR] | not cleaved | 6900 M⁻¹ s⁻¹ | not cleaved | not cleaved |  |  |  |
| VSQNY*PIVQ [HIV-1 MA/CA, oligopeptide substrate VSQNY*PIVQ] | not cleaved | 45300 M⁻¹ s⁻¹ | not cleaved | not cleaved |  |  |  |
| KTKVL*VVQPK [HTLV-1 CA/NC, oligopeptide substrate KTKVL*VVQPK] |  |  |  |  | 150.6 ± 15.1 ^1 mM^−1 s^−1 | 67200 ± 33400 | 30100 ± 15400 |
| IAAAM*SSAIQ [RSV CA/P3, oligopeptide substrate IAAAM*SSAIQ] | not cleaved | not cleaved | not cleaved | not cleaved |  |  |  |
| TFQAY*PLREA [RSV RT/IN, oligopeptide substrate TFQAY*PLREA] | not cleaved | 180 M⁻¹ s⁻¹ | not cleaved | not cleaved |  |  |  |
| TSTLL*IENSS [MuLV RT/IN, oligopeptide substrate TSTLL*IENSS] | not cleaved | not cleaved | not cleaved | not cleaved |  |  |  |
| KGPPVIL*PIQAP [HTLV-1 PR/P1, oligopeptide substrate KGPPVIL*PIQAP] |  |  |  |  | 288.3 ± 73.6 ^1 mM^−1 s^−1 | 20600 ± 2800 | 238400 ± 60100 |
| PRSSLY*PALTP [MuLV MA/P12, oligopeptide substrate PRSSLY*PALTP] | not cleaved | 200 M⁻¹ s⁻¹ | not cleaved | not cleaved |  |  |  |
| PPYVG*SGLYP [RSV P2B/P10, oligopeptide substrate PPYVG*SGLYP] | not cleaved | not cleaved | not cleaved | not cleaved |  |  |  |
| CTLNF*PISP [HIV-1 PR/RT, oligopeptide substrate CTLNF*PISP] | not cleaved | 24100 M⁻¹ s⁻¹ | not cleaved | not cleaved |  |  |  |
| DPASIL*PVIP [HTLV-1 TF1/PR, oligopeptide substrate DPASIL*PVIP] |  |  |  |  | 3.8 ± 0.6 ^1 mM^−1 s^−1 | 400 ± 100 | 1200 ± 400 |
| TATIM*MQRGN [HIV-1 P2/NC, oligopeptide substrate TATIM*MQRGN] | not cleaved | 74000 M⁻¹ s⁻¹ | not cleaved | not cleaved |  |  |  |
| RATVL*TVALH [RSV PR’/RT, oligopeptide substrate RATVL*TVALH] | 0.3 mM⁻¹ s⁻¹ | 1900 M⁻¹ s⁻¹ | not cleaved | not cleaved |  |  |  |
| KARVL*AEAMS [HIV-1 CA/P2, oligopeptide substrate KARVL*AEAMS] | not cleaved | 90000 M⁻¹ s⁻¹ | not cleaved | not cleaved |  |  |  |
| PPVGFAG*AMA [MMTV P8/N, oligopeptide substrate PPVGFAG*AMA] | not cleaved | <10 M⁻¹ s⁻¹ | not cleaved | not cleaved |  |  |  |
| ERQAN*FLGKI [HIV-1 NC/P1, oligopeptide substrate ERQAN*FLGKI] | not cleaved | 1000 M⁻¹ s⁻¹ | not cleaved | not cleaved |  |  |  |
| PPAIL*PIISE [BLV MA/CA, oligopeptide substrate PPAIL*PIISE] | 164.5 mM⁻¹ s⁻¹ | 300 M⁻¹ s⁻¹ | not cleaved | not cleaved |  |  |  |
| LTFTF*PVVFMRR [MMTV N/CA, oligopeptide substrate LTFTF*PVVFMRR] | 0.01 mM⁻¹ s⁻¹ | 900 M⁻¹ s⁻¹ | not cleaved | not cleaved |  |  |  |
| PSEEY*PIMID [EIAV MA/CA, oligopeptide substrate PSEEY*PIMID] | 0.7 mM⁻¹ s⁻¹ | 15200 M⁻¹ s⁻¹ | not cleaved | not cleaved |  |  |  |
| PVVAM*PVVIK [RSV P10/CA, oligopeptide substrate PVVAM*PVVIK] | 0.1 mM⁻¹ s⁻¹ | not cleaved | not cleaved | not cleaved |  |  |  |
| PPMVG*VLDAP [BLV PR/P13, oligopeptide substrate PPMVG*VLDAP] | 0.7 mM⁻¹ s⁻¹ | 40 M⁻¹ s⁻¹ | not cleaved | not cleaved |  |  |  |
| TSQAF*PLRAG [MuLV P12/CA, oligopeptide substrate TSQAF*PLRAG] | not cleaved | 8700 M⁻¹ s⁻¹ | not cleaved | not cleaved |  |  |  |
| VSFNF*PQITL [HIV-1 TF/PR, oligopeptide substrate VSFNF*PQITL] | not cleaved | 6900 M⁻¹ s⁻¹ | not cleaved | not cleaved |  |  |  |
| APQVL*PVMHP [HTLV-1 MA/CA, oligopeptide substrate APQVL*PVMHP] |  |  |  |  | 85.2 ± 26.1 ^1 mM^−1 s^−1 | 5500 ± 1000 | 32500 ± 6700 |
| KEEIM*LAYQG [EIAV RT/RH, oligopeptide substrate KEEIM*LAYQG] | <0.01 mM⁻¹ s⁻¹ | 18300 M⁻¹ s⁻¹ | not cleaved | not cleaved |  |  |  |
| IQPLIM*AVVNR [RSV P3/NC, oligopeptide substrate IQPLIM*AVVNR] | >100 mM⁻¹ s⁻¹ | 318000 M⁻¹ s⁻¹ | not cleaved | not cleaved |  |  |  |
| PPAVS*LAMTM [RSV NC/PR, oligopeptide substrate PPAVS*LAMTM] | not cleaved | 130 M⁻¹ s⁻¹ | not cleaved | not cleaved |  |  |  |
